In ChEMBL document CHEMBL1201862, “PubChem BioAssay data set” (2004):
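Briefly, cells in 96-well plates were exposed to five compound concentrations for 48 h, and endpoints were estimated by linear interpolation. GI50 marks 50% less growth.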 Activity calls are given as the source filed them. No stated cut-off is given here; in the data, active = GI50 up to about 1.1 µM and inactive = higher. *1 amine or outer side, *2 acyl side, *3 side chain or, on linkers, in order; H or OH if unused. Where a SMILES comes first, the peptide text is derived from it. Bridges are numbered along the chain shown (N, C = ends). [ ]: non-standard residue; d: D form. The star is where a group is joined. X36 = O=C(C(CCCCNO[*:3])N[*:1])[*:2]; Fmoc = O=C(OCC1c2ccccc2-c2ccccc21)*

Columns and labels:
Experiment in all cases: NCI-60 cell line screen, 48 h
DU-145 = system: DU-145
CAKI-1 = system: CAKI-1
IGROV-1 = system: IGROV-1
HCC 2998 = system: HCC 2998
OVCAR-3 = system: OVCAR-3
MDA-MB-435 = system: MDA-MB-435
SK-MEL-2 = system: SK-MEL-2
HOP-62 = system: HOP-62
NCI-H23 = system: NCI-H23
NCI-H522 = system: NCI-H522
LOX IMVI = system: LOX IMVI
CCRF-CEM = system: CCRF-CEM
OVCAR-8 = system: OVCAR-8
HCT-116 = system: HCT-116
EKVX = system: EKVX
Malme-3M = system: Malme-3M
TK-10 = system: TK-10
SF-268 = system: SF-268
UACC-62 = system: UACC-62
MDA-N = system: MDA-N

Compound	GI50 (DU-145)	GI50 (CAKI-1)	GI50 (IGROV-1)	GI50 (HCC 2998)	GI50 (OVCAR-3)	GI50 (MDA-MB-435)	GI50 (SK-MEL-2)	GI50 (HOP-62)	GI50 (NCI-H23)	GI50 (NCI-H522)	GI50 (LOX IMVI)	GI50 (CCRF-CEM)	GI50 (OVCAR-8)	GI50 (HCT-116)	GI50 (EKVX)	GI50 (Malme-3M)	GI50 (TK-10)	GI50 (SF-268)	GI50 (UACC-62)	GI50 (MDA-N)
CC(=O)Oc1c(-c2ccccc2)sc2ccccc12	14.1 µM (inactive)	1.33 µM (inactive)	15.3 µM (inactive)	17.1 µM (inactive)	> 10 µM (inactive)	25 µM (inactive)	13.3 µM (inactive)	22.3 µM (inactive)	15.1 µM (inactive)	19 µM (inactive)	13.5 µM (inactive)	18 µM (inactive)	27.2 µM (inactive)	13.4 µM (inactive)	22.3 µM (inactive)	18.2 µM (inactive)	22.6 µM (inactive)	23 µM (inactive)	15.7 µM (inactive)	–
CCCN1C(=O)CC(C)N(Cc2ccccc2Cl)C1=S (stereo unspecified)	26.4 µM (inactive)	36.9 µM (inactive)	33.4 µM (inactive)	–	26.1 µM (inactive)	23.7 µM (inactive)	21.7 µM (inactive)	35.4 µM (inactive)	23.5 µM (inactive)	21.1 µM (inactive)	22.3 µM (inactive)	44.5 µM (inactive)	27.2 µM (inactive)	24.7 µM (inactive)	27.9 µM (inactive)	25.4 µM (inactive)	25 µM (inactive)	24.4 µM (inactive)	19.1 µM (inactive)	21.5 µM (inactive)
Cc1cccc(Nc2cc(Cl)nc(SCC(=O)O)n2)c1C [PIRINIXIC ACID]	> 100 µM (inactive)	> 100 µM (inactive)	> 100 µM (inactive)	–	> 100 µM (inactive)	> 100 µM (inactive)	> 100 µM (inactive)	> 100 µM (inactive)	> 100 µM (inactive)	> 100 µM (inactive)	> 100 µM (inactive)	> 100 µM (inactive)	> 100 µM (inactive)	> 100 µM (inactive)	> 100 µM (inactive)	> 100 µM (inactive)	> 100 µM (inactive)	–	> 100 µM (inactive)	> 100 µM (inactive)
NC(=O)CNC(=O)C1CCCN1C(=O)C1CCCCNOC(=O)CCC(NC(=O)OCC2c3ccccc3-c3ccccc32)C(=O)NC(Cc2c[nH]c3ccccc23)C(=O)N1 (stereo unspecified) (Fmoc-EW[X36]PG-NH2; ester 1-3; configuration not given here)	> 100 µM (inactive)	–	> 100 µM (inactive)	> 100 µM (inactive)	> 100 µM (inactive)	> 100 µM (inactive)	> 100 µM (inactive)	> 100 µM (inactive)	> 100 µM (inactive)	> 100 µM (inactive)	> 100 µM (inactive)	> 100 µM (inactive)	> 100 µM (inactive)	> 100 µM (inactive)	> 100 µM (inactive)	> 100 µM (inactive)	> 100 µM (inactive)	> 100 µM (inactive)	> 100 µM (inactive)	–
C/C(CN1C(=O)c2ccccc2C1=O)=N\NS(=O)(=O)c1ccccc1	–	> 100 µM (inactive)	> 100 µM (inactive)	> 100 µM (inactive)	> 100 µM (inactive)	–	> 100 µM (inactive)	> 100 µM (inactive)	> 100 µM (inactive)	> 100 µM (inactive)	> 100 µM (inactive)	> 100 µM (inactive)	> 100 µM (inactive)	> 100 µM (inactive)	> 100 µM (inactive)	> 100 µM (inactive)	> 100 µM (inactive)	> 100 µM (inactive)	> 100 µM (inactive)	–
Cc1oc2nc(N(C)C)n3nnnc3c2c1C	> 100 µM (inactive)	> 100 µM (inactive)	> 100 µM (inactive)	> 100 µM (inactive)	–	> 100 µM (inactive)	–	–	> 100 µM (inactive)	> 100 µM (inactive)	> 100 µM (inactive)	> 100 µM (inactive)	76 µM (inactive)	> 100 µM (inactive)	> 100 µM (inactive)	–	> 100 µM (inactive)	> 100 µM (inactive)	49.9 µM (inactive)	–
CCCNC(=O)c1cc(NC(=O)c2cc(NC(=O)/C=C/c3ccccc3)c(OC)c(OC)c2)c(OC)c(OC)c1	24.8 µM (inactive)	–	12.4 µM (inactive)	–	4.01 µM (inactive)	12 µM (inactive)	7.83 µM (inactive)	4.41 µM (inactive)	11.4 µM (inactive)	4.72 µM (inactive)	2.96 µM (inactive)	> 100 µM (inactive)	4.51 µM (inactive)	5.7 µM (inactive)	15.8 µM (inactive)	3.08 µM (inactive)	14.8 µM (inactive)	2.05 µM (inactive)	0.148 µM (active)	13.8 µM (inactive)
[O-][S+](c1ccccc1)c1ccc(/N=N/O)nc1 (stereo unspecified)	> 100 µM (inactive)	> 100 µM (inactive)	> 100 µM (inactive)	–	> 100 µM (inactive)	–	–	> 100 µM (inactive)	> 100 µM (inactive)	> 100 µM (inactive)	–	> 100 µM (inactive)	> 100 µM (inactive)	> 100 µM (inactive)	> 100 µM (inactive)	0.492 µM (active)	> 100 µM (inactive)	> 100 µM (inactive)	> 100 µM (inactive)	> 100 µM (inactive)
CCCCc1ccc(N2C(=O)c3cc([N+](=O)[O-])cnc3S2(=O)=O)cc1	–	> 100 µM (inactive)	> 100 µM (inactive)	> 100 µM (inactive)	> 100 µM (inactive)	> 100 µM (inactive)	23.3 µM (inactive)	> 100 µM (inactive)	> 100 µM (inactive)	–	61.7 µM (inactive)	> 10 µM (inactive)	> 100 µM (inactive)	> 100 µM (inactive)	> 100 µM (inactive)	> 100 µM (inactive)	> 100 µM (inactive)	24.2 µM (inactive)	> 100 µM (inactive)	> 100 µM (inactive)
N#Cc1sc2c(c1OC(=O)c1cccs1)c(=O)n(-c1ccccc1)c(=S)n2-c1ccccc1	32.4 µM (inactive)	32.4 µM (inactive)	19.8 µM (inactive)	–	31.1 µM (inactive)	29.9 µM (inactive)	21.1 µM (inactive)	19.6 µM (inactive)	25.3 µM (inactive)	16.4 µM (inactive)	20.3 µM (inactive)	> 10 µM (inactive)	25.9 µM (inactive)	15.2 µM (inactive)	33.2 µM (inactive)	18.2 µM (inactive)	31 µM (inactive)	30.1 µM (inactive)	17.2 µM (inactive)	26.7 µM (inactive)
O=[N+]([O-])c1ccc(-c2nc(/C=N/N3CCCCC3)cs2)o1	> 100 µM (inactive)	> 100 µM (inactive)	50.8 µM (inactive)	–	26.3 µM (inactive)	27.7 µM (inactive)	> 100 µM (inactive)	53 µM (inactive)	29.2 µM (inactive)	45.2 µM (inactive)	–	–	92 µM (inactive)	34.1 µM (inactive)	> 100 µM (inactive)	22.8 µM (inactive)	> 100 µM (inactive)	> 100 µM (inactive)	31.9 µM (inactive)	–
CCOC(=O)/C(=C/c1ccccc1)N(CC)CC	–	> 100 µM (inactive)	> 100 µM (inactive)	> 100 µM (inactive)	> 100 µM (inactive)	–	> 100 µM (inactive)	> 100 µM (inactive)	> 100 µM (inactive)	> 100 µM (inactive)	94.4 µM (inactive)	62.2 µM (inactive)	> 100 µM (inactive)	> 100 µM (inactive)	> 100 µM (inactive)	> 100 µM (inactive)	> 100 µM (inactive)	> 100 µM (inactive)	> 100 µM (inactive)	–
O=S(=O)(c1cc(Cl)ccc1Cl)N1CCN(c2cccc(Cl)c2)CC1	> 100 µM (inactive)	> 100 µM (inactive)	> 100 µM (inactive)	> 100 µM (inactive)	> 100 µM (inactive)	–	–	> 100 µM (inactive)	> 100 µM (inactive)	> 100 µM (inactive)	> 100 µM (inactive)	> 100 µM (inactive)	> 100 µM (inactive)	> 100 µM (inactive)	> 100 µM (inactive)	> 100 µM (inactive)	> 100 µM (inactive)	> 100 µM (inactive)	–	59.2 µM (inactive)
CN/C(=N\C#N)N(Cc1ccccc1)Cc1ccccc1	–	> 100 µM (inactive)	> 100 µM (inactive)	> 100 µM (inactive)	> 100 µM (inactive)	–	> 100 µM (inactive)	> 100 µM (inactive)	> 100 µM (inactive)	> 100 µM (inactive)	> 100 µM (inactive)	> 100 µM (inactive)	> 100 µM (inactive)	> 100 µM (inactive)	> 100 µM (inactive)	> 100 µM (inactive)	> 100 µM (inactive)	> 100 µM (inactive)	> 100 µM (inactive)	–
CCOc1ccc(NCC2CC/C(=C\c3ccc(Cl)cc3)C2=O)cc1 (stereo unspecified)	–	> 45.1 µM (inactive)	> 36 µM (inactive)	13 µM (inactive)	> 36.9 µM (inactive)	–	22.4 µM (inactive)	> 100 µM (inactive)	> 48.9 µM (inactive)	6.25 µM (inactive)	19.4 µM (inactive)	9.29 µM (inactive)	> 38.3 µM (inactive)	31.1 µM (inactive)	38.6 µM (inactive)	34.5 µM (inactive)	34.6 µM (inactive)	> 55.2 µM (inactive)	> 40.7 µM (inactive)	–
